Key:
Format in all cases: biochemical
JAK2 = JAK2 (Homo sapiens, UniProt O60674); experiment: JAK2 Assay (Caliper EZ Reader, fluoresceinated peptide); conditions: ATP 11.4 μM; JAK2 0.25 nM; 15 minutes at room temperature; read-out: JAK2 inhibition
JAK1 = JAK1 (Homo sapiens, UniProt P23458); experiment: JAK Kinase Assay (JAK1, Caliper EZ Reader, fluoresceinated peptide); conditions: ATP 76.5 μM; JAK1 10 nM; 120 minutes at room temperature; read-out: JAK1 inhibition
JAK3 = molecular target: T1, JAK3 (Homo sapiens, UniProt P52333); experiment: JAK3 Assay (Caliper EZ Reader, fluoresceinated peptide); conditions: ATP 3.5 μM; JAK3 0.5 nM; 30 minutes at room temperature; read-out: JAK3 inhibition
T1 sequence (P52333 1-1124): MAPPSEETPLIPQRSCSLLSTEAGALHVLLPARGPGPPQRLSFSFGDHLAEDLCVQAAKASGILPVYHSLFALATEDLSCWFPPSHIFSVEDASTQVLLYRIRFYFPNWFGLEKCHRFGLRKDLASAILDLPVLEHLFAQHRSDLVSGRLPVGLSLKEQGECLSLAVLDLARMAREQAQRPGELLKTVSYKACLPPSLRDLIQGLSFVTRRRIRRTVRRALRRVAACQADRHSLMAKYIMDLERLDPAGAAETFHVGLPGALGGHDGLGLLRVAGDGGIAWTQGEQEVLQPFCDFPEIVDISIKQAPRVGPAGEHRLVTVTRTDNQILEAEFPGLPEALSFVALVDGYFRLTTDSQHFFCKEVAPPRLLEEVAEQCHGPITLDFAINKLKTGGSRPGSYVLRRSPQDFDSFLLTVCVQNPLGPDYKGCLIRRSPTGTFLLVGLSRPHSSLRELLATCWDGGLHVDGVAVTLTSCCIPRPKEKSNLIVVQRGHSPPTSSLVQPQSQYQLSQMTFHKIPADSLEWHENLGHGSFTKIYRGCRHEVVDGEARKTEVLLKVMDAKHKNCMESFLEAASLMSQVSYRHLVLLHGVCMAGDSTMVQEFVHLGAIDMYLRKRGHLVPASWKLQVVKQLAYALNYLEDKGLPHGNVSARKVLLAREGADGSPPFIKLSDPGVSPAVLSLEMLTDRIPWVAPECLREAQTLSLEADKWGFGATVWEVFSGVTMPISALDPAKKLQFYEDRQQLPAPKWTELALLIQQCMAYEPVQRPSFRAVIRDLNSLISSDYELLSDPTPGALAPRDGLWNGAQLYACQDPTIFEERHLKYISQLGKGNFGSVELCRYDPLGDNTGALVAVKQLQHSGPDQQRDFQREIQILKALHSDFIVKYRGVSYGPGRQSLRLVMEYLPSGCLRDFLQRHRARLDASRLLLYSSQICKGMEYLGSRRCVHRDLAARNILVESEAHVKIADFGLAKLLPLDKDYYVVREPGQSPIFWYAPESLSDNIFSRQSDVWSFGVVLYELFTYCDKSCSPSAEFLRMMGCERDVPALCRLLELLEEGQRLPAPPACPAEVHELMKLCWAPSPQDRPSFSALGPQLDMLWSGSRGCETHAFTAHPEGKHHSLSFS

TYK2 = TYK2 (Homo sapiens, UniProt P29597); experiment: TYK2 Assay (Caliper EZ Reader, fluoresceinated peptide); conditions: ATP 35.4 μM; TYK2 10 nM; 10 minutes at room temperature; read-out: TYK2 inhibition
Description: 384-well plates in the left foot butoxy measured progress. The final assay volume was 25 μL, 250 nL 100× compounds, 10 μL enzyme mix and 15 μL substrate mix (fluoresceinated peptide and ATP) in assay buffer (50 mM HEPES (pH 7.5), 10 mM MgCl2, 0.01% TritonX-100, 0.01% Brij35, 0.5 mM EGTA and 2 mM DTT) prepared as test compound. B mixing the TYK2 with substrates and test compounds to start the reaction. The reaction mixture was incubated for 10 minutes at room temperature, then added 30 μL stop buffer for each sample to terminate the reaction with 50 mM EDTA. After termination of the kinase reaction, the proportion of phosphorylated product was determined as a fraction of total peptide substrate using Caliper EZ Reader 1. Inhibition data were calculated by comparison with 100% of the reaction mixture without enzyme inhibition and vehicle-only reaction mixture billion % inhibition compared. The final concentration of reagents in the assays is: ATP, 35.4 μM; TYK2 fluorescent peptide (5-FAM-KKKKEEIYFFF-CONH2), 3 μM; TYK2, 10 nM; and DMSO, 1% Dose response curve were generated to determine the concentration required for IC50 of TYK2 activity.

Sequence of JAK2 (O60674 whole entry, species assumed): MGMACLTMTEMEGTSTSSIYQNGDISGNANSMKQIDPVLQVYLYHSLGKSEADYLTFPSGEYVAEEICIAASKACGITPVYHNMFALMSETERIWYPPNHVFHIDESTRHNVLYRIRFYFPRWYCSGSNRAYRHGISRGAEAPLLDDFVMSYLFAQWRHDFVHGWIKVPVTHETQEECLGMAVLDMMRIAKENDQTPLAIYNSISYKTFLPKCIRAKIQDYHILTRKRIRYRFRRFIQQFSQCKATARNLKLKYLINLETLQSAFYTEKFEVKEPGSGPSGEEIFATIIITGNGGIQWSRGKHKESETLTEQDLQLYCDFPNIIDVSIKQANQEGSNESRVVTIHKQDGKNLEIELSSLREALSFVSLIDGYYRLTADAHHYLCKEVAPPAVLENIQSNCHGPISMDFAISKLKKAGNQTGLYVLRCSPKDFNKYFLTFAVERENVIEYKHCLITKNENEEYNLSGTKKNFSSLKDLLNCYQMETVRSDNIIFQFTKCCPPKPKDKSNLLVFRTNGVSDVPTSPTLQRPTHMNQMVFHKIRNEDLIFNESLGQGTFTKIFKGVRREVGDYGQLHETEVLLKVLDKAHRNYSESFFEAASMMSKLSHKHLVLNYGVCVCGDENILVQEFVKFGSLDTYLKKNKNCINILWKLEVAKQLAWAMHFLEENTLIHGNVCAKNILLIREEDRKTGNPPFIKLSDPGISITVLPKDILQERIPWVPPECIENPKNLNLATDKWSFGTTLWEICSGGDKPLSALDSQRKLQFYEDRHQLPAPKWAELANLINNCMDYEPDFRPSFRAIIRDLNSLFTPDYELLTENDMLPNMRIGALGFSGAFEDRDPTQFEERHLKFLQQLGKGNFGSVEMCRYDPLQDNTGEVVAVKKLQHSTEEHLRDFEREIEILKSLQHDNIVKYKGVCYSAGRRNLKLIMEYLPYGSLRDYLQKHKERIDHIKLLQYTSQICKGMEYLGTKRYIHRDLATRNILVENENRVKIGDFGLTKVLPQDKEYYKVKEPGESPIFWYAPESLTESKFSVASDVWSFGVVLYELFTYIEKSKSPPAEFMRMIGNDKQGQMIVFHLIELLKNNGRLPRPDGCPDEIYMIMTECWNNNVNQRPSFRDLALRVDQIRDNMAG
Sequence of TYK2 (P29597 whole entry, species assumed): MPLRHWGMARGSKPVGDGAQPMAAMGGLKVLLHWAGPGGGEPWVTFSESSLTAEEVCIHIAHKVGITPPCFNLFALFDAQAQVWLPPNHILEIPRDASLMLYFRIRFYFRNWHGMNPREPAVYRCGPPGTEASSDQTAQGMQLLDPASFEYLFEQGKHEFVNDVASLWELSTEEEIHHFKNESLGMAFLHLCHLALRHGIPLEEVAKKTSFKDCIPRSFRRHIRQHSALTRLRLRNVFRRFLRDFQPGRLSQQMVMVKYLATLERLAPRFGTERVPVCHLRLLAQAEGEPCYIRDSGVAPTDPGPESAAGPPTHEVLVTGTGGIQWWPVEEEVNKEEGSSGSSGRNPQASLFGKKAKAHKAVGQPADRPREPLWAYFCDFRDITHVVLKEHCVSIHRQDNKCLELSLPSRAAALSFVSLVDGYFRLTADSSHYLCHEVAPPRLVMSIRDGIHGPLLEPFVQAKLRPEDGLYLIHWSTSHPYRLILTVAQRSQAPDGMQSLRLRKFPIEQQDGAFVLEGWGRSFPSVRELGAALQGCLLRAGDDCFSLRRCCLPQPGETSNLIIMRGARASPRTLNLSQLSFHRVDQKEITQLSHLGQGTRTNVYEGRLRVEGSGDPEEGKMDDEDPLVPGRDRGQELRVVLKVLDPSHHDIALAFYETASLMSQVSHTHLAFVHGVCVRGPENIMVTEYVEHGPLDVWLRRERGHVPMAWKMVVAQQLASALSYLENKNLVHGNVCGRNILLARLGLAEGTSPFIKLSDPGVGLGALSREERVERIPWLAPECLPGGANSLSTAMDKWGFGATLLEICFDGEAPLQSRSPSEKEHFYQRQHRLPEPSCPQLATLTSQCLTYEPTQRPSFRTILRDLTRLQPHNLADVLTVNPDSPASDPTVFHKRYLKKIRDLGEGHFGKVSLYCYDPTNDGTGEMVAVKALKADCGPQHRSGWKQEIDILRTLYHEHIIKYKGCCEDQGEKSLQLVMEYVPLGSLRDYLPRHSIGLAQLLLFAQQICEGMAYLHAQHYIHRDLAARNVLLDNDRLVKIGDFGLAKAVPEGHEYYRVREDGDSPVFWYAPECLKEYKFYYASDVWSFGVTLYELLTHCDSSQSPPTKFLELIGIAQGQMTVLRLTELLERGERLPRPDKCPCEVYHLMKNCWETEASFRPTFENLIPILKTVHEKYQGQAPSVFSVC
Sequence of JAK1 (P23458 whole entry, species assumed): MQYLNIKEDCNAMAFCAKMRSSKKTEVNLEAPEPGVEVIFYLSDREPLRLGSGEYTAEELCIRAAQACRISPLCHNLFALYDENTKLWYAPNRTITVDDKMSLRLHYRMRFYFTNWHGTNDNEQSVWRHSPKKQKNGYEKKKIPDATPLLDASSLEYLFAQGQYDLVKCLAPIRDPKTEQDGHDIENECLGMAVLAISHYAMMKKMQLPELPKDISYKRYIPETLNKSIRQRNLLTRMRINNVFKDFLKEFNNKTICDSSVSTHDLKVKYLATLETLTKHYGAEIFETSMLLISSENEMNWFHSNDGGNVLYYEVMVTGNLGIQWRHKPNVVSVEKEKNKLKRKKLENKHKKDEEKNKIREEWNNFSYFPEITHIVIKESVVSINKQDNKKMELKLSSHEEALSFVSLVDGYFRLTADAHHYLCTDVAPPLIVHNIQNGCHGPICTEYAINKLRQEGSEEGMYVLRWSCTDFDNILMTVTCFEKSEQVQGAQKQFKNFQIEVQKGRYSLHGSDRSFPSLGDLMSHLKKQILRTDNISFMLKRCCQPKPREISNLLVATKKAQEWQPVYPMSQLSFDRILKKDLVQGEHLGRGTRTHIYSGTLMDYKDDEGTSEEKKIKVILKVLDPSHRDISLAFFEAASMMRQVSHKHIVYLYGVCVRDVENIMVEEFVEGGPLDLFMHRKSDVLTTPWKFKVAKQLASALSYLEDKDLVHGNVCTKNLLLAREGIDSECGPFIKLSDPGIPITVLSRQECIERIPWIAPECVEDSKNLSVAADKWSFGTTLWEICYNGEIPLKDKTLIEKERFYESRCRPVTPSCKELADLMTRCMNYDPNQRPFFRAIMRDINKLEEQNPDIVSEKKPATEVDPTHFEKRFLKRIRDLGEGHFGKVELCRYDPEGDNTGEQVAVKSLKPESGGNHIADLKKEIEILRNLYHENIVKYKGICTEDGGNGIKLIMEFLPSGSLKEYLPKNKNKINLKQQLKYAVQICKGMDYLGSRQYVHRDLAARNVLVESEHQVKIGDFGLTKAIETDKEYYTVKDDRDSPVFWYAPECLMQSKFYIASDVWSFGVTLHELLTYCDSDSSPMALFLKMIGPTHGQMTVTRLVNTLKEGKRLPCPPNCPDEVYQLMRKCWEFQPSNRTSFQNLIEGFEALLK

IC50 (JAK2) [nM]	IC50 (JAK1) [nM]	IC50 (JAK3) [nM]	IC50 (TYK2) [nM]	SMILES
100 to 1000	≤ 10	≥ 10000	1000 to 10000	C#Cc1ccc(C(=O)N2CC3(CC(N(C)c4ncnc5[nH]ccc45)C3)C2)cc1 [Compound 26, (4-ethynylphenyl)(6-(methyl(7H-pyrrolo[2,3-d]pyrimidin-4-yl)amino)-2-azaspiro[3.3]heptan-2-yl)methanone]
100 to 1000	10 to 100	≥ 10000	1000 to 10000	CN(c1ncnc2[nH]ccc12)C1CC2(C1)CN(C(=O)c1cc3ccccc3[nH]1)C2 [Compound 30, (1H-indol-2-yl)(6-(methyl(7H-pyrrolo[2,3-d]pyrimidin-4-yl)amino)-2-azaspiro[3.3]heptan-2-yl)methanone]
1000 to 10000	100 to 1000	≥ 10000	≥ 10000	CN(c1ncnc2[nH]ccc12)C1CC2(C1)CN(C(=O)Nc1cccc(Cl)c1)C2 [Compound 33, N-(3-chlorophenyl)-6-(methyl(7H-pyrrolo[2,3-d]pyrimidin-4-yl)amino)-2-azaspiro[3.3]heptane-2-carboxamide]
1000 to 10000	10 to 100	≥ 10000	≥ 10000	CN(c1ncnc2[nH]ccc12)C1CC2(C1)CN(C(=O)c1ccc(F)cc1)C2 [Compound 27, (4-fluorophenyl)(6-(methyl(7H-pyrrolo[2,3-d]pyrimidin-4-yl)amino)-2-azaspiro[3.3]heptan-2-yl)methanone]
1000 to 10000	10 to 100	≥ 10000	≥ 10000	CN(c1ncnc2[nH]ccc12)C1CC2(C1)CN(C(=O)c1ccc(Cl)cc1)C2 [Compound 25, (4-chlorophenyl)(6-(methyl(7H-pyrrolo[2,3-d]pyrimidin-4-yl)amino)-2-azaspiro[3.3]heptan-2-yl)methanone]
1000 to 10000	100 to 1000	≥ 10000	≥ 10000	CN(c1ncnc2[nH]ccc12)C1CC2(C1)CN(C(=O)c1ccc(C(F)(F)F)cc1)C2 [Compound 31, (6-(methyl(7H-pyrrolo[2,3-d]pyrimidin-4-yl)amino)-2-azaspiro[3.3]heptan-2-yl)(4-(trifluoromethyl)phenyl)methanone]
100 to 1000	10 to 100	≥ 10000	≥ 10000	CN(c1ncnc2[nH]ccc12)C1CC2(C1)CN(C(=O)c1ccc(C#N)cc1F)C2 [Compound 14, 3-fluoro-4-(6-(methyl(7H-pyrrolo[2,3-d]pyrimidin-4-yl)amino)-2-azaspiro[3.3]heptane-2-carbonyl)benzonitrile]
100 to 1000	≤ 10	1000 to 10000	1000 to 10000	CN(c1ncnc2[nH]ccc12)C1CC2(C1)CN(C(=O)c1ccc(C#N)c(F)c1F)C2 [Compound 53, 2,3-difluoro-4-(6-(methyl(7H-pyrrolo[2,3-d]pyrimidin-4-yl)amino)-2-azaspiro[3.3]heptane-2-carbonyl)benzonitrile]
1000 to 10000	10 to 100	≥ 10000	≥ 10000	CN(c1ncnc2[nH]ccc12)C1CC2(C1)CN(C(=O)c1ccc(Cl)cn1)C2 [Compound 32, (5-chloropyridin-2-yl)(6-(methyl(7H-pyrrolo[2,3-d]pyrimidin-4-yl)amino)-2-azaspiro[3.3]heptan-2-yl)methanone]
1000 to 10000	10 to 100	≥ 10000	≥ 10000	COc1ccc(C(=O)N2CC3(CC(N(C)c4ncnc5[nH]ccc45)C3)C2)cc1 [Compound 24, (4-methoxyphenyl)(6-(methyl(7H-pyrrolo[2,3-d]pyrimidin-4-yl)amino)-2-azaspiro[3.3]heptan-2-yl)methanone]
1000 to 10000	10 to 100	≥ 10000	≥ 10000	CN(c1ncnc2[nH]ccc12)C1CC2(C1)CN(C(=O)c1ccc(C#N)c(F)c1)C2 [Compound 1, 2-fluoro-4-(6-(methyl(7H-pyrrolo[2,3-d]pyrimidin-4-yl)amino)-2-azaspiro[3.3]heptane-2-carbonyl)benzonitrile]
100 to 1000	10 to 100	≥ 10000	≥ 10000	Cc1ccsc1C(=O)N1CC2(CC(N(C)c3ncnc4[nH]ccc34)C2)C1 [Compound 28, (6-(methyl(7H-pyrrolo[2,3-d]pyrimidin-4-yl)amino)-2-azaspiro[3.3]heptan-2-yl)(3-methylthiophen-2-yl)methanone]
100 to 1000	10 to 100	1000 to 10000		CN(c1ncnc2[nH]ccc12)C1CC2(C1)CN(C(=O)c1cccnc1)C2 [Compound 9, (6-(methyl(7H-pyrrolo[2,3-d]pyrimidin-4-yl)amino)-2-azaspiro[3.3]heptan-2-yl)(pyridin-3-yl)methanone]

Source: patent US11365188B2, “JAK inhibitors” (priority 2018, dated 2022)
